Data on 2 compounds can be found in publication PMC8213057, “Targeting ALK2: An Open Science Approach to Developing Therapeutics for the Treatment of Diffuse Intrinsic Pontine Glioma” (Journal of Medicinal Chemistry, 2020).

One assay concerns the target PYK2 (Homo sapiens, UniProt Q14289). Briefly: biochemical. The following applies: read-out: % enzyme activity, 1 μM; Run 1, Run 2.
A further assay addresses EPHA7 (Homo sapiens, UniProt Q15375). Briefly: biochemical. As to conditions: read-out: % enzyme activity, 1 μM; Run 1, Run 2.
A further assay deals with HIPK3 (Homo sapiens, UniProt Q9H422). Briefly: biochemical. The following applies: read-out: % enzyme activity, 1 μM; Run 1, Run 2.
The next assay deals with T1, EPHB2 (Homo sapiens, UniProt P29323).
T1 sequence (P29323 19-1055): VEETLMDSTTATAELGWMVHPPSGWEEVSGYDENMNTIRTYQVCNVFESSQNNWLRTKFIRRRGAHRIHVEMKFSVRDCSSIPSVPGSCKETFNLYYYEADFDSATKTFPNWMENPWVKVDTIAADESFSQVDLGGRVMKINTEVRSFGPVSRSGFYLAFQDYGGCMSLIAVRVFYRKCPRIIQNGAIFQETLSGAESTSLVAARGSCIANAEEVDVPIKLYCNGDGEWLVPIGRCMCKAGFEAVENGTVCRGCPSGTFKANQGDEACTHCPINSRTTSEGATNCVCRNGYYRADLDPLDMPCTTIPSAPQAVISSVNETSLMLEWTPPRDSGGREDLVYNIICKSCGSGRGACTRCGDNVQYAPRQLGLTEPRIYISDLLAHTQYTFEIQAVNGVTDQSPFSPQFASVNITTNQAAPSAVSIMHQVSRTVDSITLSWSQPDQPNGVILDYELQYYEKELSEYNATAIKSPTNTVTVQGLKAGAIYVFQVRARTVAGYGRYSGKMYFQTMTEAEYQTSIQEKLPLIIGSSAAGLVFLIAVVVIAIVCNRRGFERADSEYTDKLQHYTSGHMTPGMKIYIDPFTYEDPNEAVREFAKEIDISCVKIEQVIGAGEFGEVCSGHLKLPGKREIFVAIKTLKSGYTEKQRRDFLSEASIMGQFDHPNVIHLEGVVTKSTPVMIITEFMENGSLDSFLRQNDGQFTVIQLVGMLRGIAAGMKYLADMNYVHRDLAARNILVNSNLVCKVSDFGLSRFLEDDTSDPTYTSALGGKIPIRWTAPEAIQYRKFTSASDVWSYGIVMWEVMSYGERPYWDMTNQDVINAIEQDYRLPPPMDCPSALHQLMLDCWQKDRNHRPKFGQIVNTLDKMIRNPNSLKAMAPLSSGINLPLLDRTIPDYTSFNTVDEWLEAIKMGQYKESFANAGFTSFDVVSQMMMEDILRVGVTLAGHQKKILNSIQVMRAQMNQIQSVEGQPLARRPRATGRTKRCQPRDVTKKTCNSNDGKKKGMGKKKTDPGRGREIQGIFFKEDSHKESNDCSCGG
Briefly: biochemical. As to conditions: read-out: % enzyme activity, 1 μM; Run 1, Run 2.

In a further assay the target is ZIPK/DAPK3 (Homo sapiens, UniProt O43293). The following applies: 1 μM; Run 1, Run 2.
Sequence of ZIPK/DAPK3 (O43293 whole entry): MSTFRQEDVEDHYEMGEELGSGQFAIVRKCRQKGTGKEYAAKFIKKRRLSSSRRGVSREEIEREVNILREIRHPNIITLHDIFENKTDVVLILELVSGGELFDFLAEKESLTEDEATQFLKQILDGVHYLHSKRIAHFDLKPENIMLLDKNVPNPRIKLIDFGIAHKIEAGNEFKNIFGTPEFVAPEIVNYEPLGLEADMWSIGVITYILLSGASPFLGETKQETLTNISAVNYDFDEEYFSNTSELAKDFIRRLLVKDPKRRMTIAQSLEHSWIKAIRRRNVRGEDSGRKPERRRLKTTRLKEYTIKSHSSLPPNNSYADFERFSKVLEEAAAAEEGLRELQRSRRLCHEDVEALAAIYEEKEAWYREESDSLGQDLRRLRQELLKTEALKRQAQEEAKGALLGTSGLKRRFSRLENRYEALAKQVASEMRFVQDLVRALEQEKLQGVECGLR
A further assay concerns the target TYK2 (Homo sapiens, UniProt P29597). The following applies: 1 μM; Run 1, Run 2.
Another assay deals with CAMK4 (Homo sapiens, UniProt Q16566). Briefly: biochemical. The following applies: read-out: % enzyme activity, 1 μM; Run 1, Run 2.
Sequence of CAMK4 (Q16566 whole entry): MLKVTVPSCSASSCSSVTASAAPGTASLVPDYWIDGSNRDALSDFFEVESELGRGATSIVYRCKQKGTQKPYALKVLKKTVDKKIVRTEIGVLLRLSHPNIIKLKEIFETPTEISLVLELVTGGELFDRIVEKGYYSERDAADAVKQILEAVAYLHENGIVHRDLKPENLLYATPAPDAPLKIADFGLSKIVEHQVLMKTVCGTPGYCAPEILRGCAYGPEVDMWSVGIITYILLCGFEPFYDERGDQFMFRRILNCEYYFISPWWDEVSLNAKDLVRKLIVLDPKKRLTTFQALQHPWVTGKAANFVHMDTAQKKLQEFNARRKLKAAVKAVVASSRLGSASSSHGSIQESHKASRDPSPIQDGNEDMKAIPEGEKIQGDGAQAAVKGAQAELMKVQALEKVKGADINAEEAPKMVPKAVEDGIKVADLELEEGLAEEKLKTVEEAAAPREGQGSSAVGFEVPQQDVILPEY
The next assay has as its target T2, RIPK5 (Homo sapiens, UniProt Q6XUX3).
T2 sequence (Q6XUX3 1-929): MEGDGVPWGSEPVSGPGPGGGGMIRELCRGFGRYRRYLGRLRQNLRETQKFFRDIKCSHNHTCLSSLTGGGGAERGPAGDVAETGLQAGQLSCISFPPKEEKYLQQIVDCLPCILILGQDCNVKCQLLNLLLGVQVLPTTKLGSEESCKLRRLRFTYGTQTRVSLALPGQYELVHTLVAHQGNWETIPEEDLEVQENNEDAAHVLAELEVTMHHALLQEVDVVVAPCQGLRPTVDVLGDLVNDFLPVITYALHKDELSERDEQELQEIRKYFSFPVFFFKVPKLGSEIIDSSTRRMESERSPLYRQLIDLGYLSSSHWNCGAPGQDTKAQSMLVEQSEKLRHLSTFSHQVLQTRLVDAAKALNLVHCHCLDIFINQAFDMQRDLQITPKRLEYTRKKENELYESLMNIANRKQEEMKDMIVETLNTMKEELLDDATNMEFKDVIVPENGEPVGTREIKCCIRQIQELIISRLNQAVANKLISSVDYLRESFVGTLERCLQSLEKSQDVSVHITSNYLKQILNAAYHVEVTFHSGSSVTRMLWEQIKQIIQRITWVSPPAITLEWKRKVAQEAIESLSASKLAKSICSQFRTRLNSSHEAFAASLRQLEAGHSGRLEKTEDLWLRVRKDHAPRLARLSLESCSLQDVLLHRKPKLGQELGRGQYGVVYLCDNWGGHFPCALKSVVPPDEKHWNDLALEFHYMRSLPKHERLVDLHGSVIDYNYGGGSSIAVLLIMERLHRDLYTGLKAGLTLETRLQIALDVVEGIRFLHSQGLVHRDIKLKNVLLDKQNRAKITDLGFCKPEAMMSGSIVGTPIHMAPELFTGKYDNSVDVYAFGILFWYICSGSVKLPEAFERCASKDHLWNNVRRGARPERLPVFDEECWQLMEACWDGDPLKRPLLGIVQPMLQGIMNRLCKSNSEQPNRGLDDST
Briefly: biochemical. The following applies: read-out: % enzyme activity, 1 μM; Run 1, Run 2.

A further assay has as its target CAMK2g (Homo sapiens, UniProt Q13555). Briefly: biochemical. As to conditions: read-out: % enzyme activity, 1 μM; Run 1, Run 2.
The target of the next assay is LYN (Homo sapiens, UniProt P07948). Briefly: biochemical. The following applies: read-out: % enzyme activity, 1 μM; Run 1, Run 2.
Sequence of LYN (P07948 whole entry): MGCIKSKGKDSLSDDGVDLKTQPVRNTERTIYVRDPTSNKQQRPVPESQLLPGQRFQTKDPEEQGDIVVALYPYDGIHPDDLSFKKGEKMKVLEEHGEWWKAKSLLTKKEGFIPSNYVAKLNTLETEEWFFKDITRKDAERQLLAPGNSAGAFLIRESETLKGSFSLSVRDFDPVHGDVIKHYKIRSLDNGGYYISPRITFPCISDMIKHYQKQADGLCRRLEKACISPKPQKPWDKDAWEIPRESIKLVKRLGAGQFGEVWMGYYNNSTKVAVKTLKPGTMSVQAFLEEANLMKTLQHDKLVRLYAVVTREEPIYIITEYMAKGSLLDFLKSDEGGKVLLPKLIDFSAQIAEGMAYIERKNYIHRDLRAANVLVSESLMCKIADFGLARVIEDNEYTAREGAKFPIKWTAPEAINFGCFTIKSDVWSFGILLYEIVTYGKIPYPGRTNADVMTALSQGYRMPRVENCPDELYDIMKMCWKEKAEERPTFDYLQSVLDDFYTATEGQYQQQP
The target of the next assay is LCK (Homo sapiens, UniProt P06239). Briefly: biochemical. The following applies: read-out: % enzyme activity, 1 μM; Run 1, Run 2.
Sequence of LCK (P06239 whole entry): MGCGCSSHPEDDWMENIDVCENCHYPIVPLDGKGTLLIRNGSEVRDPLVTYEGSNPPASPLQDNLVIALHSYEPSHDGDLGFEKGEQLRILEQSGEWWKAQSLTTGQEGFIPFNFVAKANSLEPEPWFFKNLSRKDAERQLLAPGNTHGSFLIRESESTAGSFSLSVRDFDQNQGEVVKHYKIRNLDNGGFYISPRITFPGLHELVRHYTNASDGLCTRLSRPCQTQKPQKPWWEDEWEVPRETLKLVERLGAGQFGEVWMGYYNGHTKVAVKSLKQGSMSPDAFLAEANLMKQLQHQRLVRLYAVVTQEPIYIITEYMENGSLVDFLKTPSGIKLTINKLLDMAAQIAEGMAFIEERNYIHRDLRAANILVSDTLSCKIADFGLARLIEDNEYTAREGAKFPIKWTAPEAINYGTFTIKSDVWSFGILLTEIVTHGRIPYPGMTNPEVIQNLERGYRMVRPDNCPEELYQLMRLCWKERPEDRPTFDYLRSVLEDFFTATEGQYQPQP
In a further assay the target is T3, P38d/MAPK13 (Homo sapiens, UniProt O15264).
T3 sequence (O15264 1-365): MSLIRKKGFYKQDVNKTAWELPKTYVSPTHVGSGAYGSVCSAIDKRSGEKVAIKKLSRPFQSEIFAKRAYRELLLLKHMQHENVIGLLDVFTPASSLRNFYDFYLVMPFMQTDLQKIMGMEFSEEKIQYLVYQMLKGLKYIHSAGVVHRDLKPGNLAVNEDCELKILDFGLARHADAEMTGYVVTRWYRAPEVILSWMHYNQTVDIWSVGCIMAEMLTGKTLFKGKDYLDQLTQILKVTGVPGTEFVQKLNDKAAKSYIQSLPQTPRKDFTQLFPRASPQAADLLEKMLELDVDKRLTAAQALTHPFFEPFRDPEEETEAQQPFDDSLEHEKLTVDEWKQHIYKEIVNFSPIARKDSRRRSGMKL
As to conditions: 1 μM; Run 1, Run 2.

A further assay has as its target SBK1 (Homo sapiens, UniProt Q52WX2). The following applies: 1 μM; Run 1, Run 2.

Sequence of CAMK2g (Q13555 whole entry): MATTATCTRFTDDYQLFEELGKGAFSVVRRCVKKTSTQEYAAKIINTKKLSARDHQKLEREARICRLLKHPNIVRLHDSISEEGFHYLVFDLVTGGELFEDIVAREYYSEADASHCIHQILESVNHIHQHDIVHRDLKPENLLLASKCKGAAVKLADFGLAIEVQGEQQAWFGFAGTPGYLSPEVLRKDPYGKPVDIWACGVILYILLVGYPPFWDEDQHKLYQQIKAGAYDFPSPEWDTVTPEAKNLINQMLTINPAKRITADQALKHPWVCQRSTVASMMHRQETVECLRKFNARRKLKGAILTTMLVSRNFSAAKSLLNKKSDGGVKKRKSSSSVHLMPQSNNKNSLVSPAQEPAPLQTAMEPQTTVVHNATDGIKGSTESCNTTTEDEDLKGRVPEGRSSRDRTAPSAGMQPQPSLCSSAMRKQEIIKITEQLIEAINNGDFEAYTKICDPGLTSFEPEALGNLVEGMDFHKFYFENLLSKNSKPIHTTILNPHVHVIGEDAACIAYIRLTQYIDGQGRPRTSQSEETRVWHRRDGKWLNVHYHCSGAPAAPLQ
Sequence of PYK2 (Q14289 whole entry): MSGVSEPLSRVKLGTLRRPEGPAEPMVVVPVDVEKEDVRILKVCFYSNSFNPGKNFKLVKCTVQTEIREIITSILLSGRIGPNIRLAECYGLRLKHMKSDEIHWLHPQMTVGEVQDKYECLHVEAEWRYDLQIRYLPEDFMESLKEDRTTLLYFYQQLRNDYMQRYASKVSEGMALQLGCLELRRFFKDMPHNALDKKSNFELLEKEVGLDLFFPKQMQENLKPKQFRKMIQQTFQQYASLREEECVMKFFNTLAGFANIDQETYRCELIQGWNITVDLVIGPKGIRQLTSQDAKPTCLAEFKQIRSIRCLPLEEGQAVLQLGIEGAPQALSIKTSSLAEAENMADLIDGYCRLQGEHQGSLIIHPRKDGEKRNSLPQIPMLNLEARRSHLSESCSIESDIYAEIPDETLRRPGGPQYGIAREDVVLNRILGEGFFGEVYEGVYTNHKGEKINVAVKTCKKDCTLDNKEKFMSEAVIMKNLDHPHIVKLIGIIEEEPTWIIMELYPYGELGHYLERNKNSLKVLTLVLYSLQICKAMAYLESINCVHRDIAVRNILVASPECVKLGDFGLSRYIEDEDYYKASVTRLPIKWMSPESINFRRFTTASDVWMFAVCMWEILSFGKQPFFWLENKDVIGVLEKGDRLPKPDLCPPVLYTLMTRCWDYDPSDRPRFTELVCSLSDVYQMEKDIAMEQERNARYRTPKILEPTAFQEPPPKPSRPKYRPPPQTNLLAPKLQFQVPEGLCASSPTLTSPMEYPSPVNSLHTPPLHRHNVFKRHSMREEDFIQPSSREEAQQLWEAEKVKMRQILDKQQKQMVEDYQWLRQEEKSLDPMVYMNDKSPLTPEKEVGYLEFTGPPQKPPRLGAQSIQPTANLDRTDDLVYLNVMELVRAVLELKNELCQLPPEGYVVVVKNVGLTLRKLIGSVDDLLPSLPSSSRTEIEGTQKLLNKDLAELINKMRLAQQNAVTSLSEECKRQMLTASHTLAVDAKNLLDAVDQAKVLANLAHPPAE
Sequence of SBK1 (Q52WX2 whole entry): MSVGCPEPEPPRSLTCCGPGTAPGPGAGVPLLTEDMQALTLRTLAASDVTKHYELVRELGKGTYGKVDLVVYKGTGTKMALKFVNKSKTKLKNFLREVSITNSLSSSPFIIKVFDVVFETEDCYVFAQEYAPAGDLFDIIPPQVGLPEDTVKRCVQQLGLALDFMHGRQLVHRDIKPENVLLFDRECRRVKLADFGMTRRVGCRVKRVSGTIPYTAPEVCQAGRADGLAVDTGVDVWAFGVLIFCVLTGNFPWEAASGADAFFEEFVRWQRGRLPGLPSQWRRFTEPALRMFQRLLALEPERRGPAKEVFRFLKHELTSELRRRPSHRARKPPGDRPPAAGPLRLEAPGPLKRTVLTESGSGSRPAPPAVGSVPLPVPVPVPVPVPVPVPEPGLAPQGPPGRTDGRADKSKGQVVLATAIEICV
Sequence of EPHA7 (Q15375 28-998): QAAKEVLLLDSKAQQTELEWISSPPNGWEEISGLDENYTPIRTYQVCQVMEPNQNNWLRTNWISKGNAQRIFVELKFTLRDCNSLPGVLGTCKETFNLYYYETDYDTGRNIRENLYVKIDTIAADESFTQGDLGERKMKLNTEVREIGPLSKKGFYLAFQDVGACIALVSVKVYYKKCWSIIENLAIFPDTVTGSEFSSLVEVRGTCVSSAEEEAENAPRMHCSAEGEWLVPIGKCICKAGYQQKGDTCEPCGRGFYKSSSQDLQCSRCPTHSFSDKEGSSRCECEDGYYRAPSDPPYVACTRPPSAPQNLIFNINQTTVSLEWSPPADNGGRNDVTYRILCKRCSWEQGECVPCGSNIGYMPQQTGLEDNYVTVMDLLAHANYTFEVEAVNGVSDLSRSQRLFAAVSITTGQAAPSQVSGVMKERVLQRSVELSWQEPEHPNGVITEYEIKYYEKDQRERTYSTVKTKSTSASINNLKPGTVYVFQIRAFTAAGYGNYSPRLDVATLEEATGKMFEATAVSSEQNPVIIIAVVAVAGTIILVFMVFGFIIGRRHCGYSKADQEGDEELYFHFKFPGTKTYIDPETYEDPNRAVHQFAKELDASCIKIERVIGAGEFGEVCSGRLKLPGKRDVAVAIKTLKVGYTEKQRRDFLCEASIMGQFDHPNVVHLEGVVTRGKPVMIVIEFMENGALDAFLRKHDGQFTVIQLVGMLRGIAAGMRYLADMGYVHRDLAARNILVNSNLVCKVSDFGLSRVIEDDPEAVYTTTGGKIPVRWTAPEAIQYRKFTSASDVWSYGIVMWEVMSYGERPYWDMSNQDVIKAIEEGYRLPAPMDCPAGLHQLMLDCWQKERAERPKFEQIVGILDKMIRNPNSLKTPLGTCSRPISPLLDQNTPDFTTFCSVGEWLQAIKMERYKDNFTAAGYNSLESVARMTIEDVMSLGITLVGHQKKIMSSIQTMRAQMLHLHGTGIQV

Take `COc1cc(-c2cncc(-c3ccc(N4CCN(C)CC4)cc3)c2C)cc(F)c1C(N)=O` [Compound 26a, 2-Fluoro-6-methoxy-4-(4-methyl-5-(4-(4-methylpiperazin-1-yl)phenyl)pyridin-3-yl)benzamide]: the remaining activity at 1 µM at PYK2 was 85.9%; at EPHA7, 101%; on HIPK3, 97.8%; at EPHB2, 93.9%; on CAMK4, 100%; at RIPK5, 83.1%. The remaining activity at 1 µM at CAMK2g came to 103%; at LYN, 79.9%; on LCK, 93.2%. Also, the “% enzyme activity” value on ZIPK/DAPK3 came to 103.31%; at TYK2 it was 91.37%; at P38d/MAPK13, 98.26%; at SBK1 it was 93.74%.
For `COc1cc(-c2cncc(-c3ccc(N4C[C@@H](C)N(C)[C@@H](C)C4)cc3)c2C)cc(F)c1C(N)=O` [Compound 26c, 2-Fluoro-6-methoxy-4-(4-methyl-5-(4-((3R,5S)-3,4,5-trimethylpiperazin-1-yl)phenyl)pyridin-3-yl)benzamide], the remaining activity at 1 µM at PYK2 stood at 88.6%; on EPHA7, 98.4%; on HIPK3, 90.4%; on EPHB2, 98.8%; at CAMK4 it was 103%; at RIPK5, 86.8%. In addition, the remaining activity at 1 µM came out at 110% on CAMK2g, 91% at LYN and 101% at LCK. In addition, the “% enzyme activity” value on ZIPK/DAPK3 amounted to 102.34%; on TYK2 it was 99.47%; at P38d/MAPK13 it was 97.52%; on SBK1, 101.08%.
